Test results from paper PMC12175177 (Frontiers in Pharmacology, 2025).
pIC50: −log10 of the molar value. Converted amounts (≈) assume the structure as drawn. Counter-ions that a name gives are not always drawn. Like-named read-outs stand apart in the source and are kept apart here.

Legend:
Assay type in all cases: cell-based
[1] = test system: SARS-CoV-2 Delta variant (SEQ203); details: for % inhibition Vero E6 Delta MOI 0.0001 / % inhibition Vero E6 Delta MOI 0.01: at MNCC, 48 h; for % inhibition Vero E6 Delta MOI 0.0001: 1x; for % inhibition Vero E6 Delta MOI 0.01: mean 2x
[2] = test system: SARS-CoV-2 A2.5 variant (M2169); details: at MNCC; […]; 48 h; mean 2x
[3] = test system: SARS-CoV-2 A2.5 variant (M2169); details: for % inhibition Vero E6 A2.5 MOI 0.01: at MNCC, 48 h, 1x
[4] = test system: SARS-CoV-2 Delta variant (SEQ203); details: at MNCC, 48 h, 1x
SARS-CoV-2 A2.5 variant = experiment: microbe, parasite or virus in culture; details: for IC50: read-out: IC50% in µg/mL
[5] = Severe acute respiratory syndrome coronavirus 2, Vero C1008, 72 h, read-out: IC50%
[6] = Severe acute respiratory syndrome coronavirus 2, Vero C1008, 72 h
[7] = Severe acute respiratory syndrome coronavirus 2, Vero C1008, read-out: IC90%
[8] = Severe acute respiratory syndrome coronavirus 2, Vero C1008, read-out: IC90% in µg/mL

Molecule	antiviral inhibition at MOI = 0.00001 [1]	% inhibition Vero E6 Delta MOI 0.0001 [1]	% inhibition Vero E6 Delta MOI 0.01 [1]	% inhibition Calu-3 A2.5 MOI 0.01 [2]	% inhibition Vero E6 A2.5 MOI 0.01 [3]	% inhibition Calu-3 Delta MOI 0.01 [4]	also measured
CCN(CC)Cc1cc(Nc2ccnc3cc(Cl)ccc23)ccc1O [Amodiaquine (AQ), Amodiaquine]	≥ 20%	42%	11%	showed activity	showed activity	–	–
CCO[C@H]1O[C@@H]2O[C@@]3(C)CC[C@H]4[C@H](C)CC[C@@H]([C@H]1C)[C@@]24OO3 [Arteether (AE), Arteether]	≥ 20%	23%	8%	showed activity	10%	5%	–
C[C@H]1[C@@H](OCc2ccc(C(=O)O)cc2)O[C@@H]2O[C@@]3(C)CC[C@H]4[C@H](C)CC[C@@H]1[C@@]24OO3 [Artelinic Acid (AA), Artelinic Acid]	–	0%	5%	14%	0%	7%	–
C[C@H]1[C@H](N2CCS(=O)(=O)CC2)O[C@@H]2O[C@@]3(C)CC[C@H]4[C@H](C)CC[C@@H]1[C@@]24OO3 [Artemisone (ASO), Artemisone]	–	15%	10%	–	showed activity	16%	–
C[C@H]1[C@H](OC(=O)CCC(=O)O)O[C@@H]2O[C@@]3(C)CC[C@H]4[C@H](C)CC[C@@H]1[C@@]24OO3 [Artesunate injection (ASi), Artesunate]	≥ 20%	41%	–	10%	0%	–	less potent against the Delta compared to the A2.5 variant [1]: 20%; pIC50 (SARS-CoV-2 A2.5 variant; [5]): 4.54; IC50 (SARS-CoV-2 A2.5 variant; [6]): 11 µg/mL; IC90 (SARS-CoV-2 A2.5 variant; [7]): 258 µM; IC90 (SARS-CoV-2 A2.5 variant; [8]): 99.3 µg/mL
C[C@H]1[C@H](OC(=O)CCC(=O)O)O[C@@H]2O[C@@]3(C)CC[C@H]4[C@H](C)CC[C@@H]1[C@@]24OO3 [Artesunic acid (AS), Artesunic acid]	–	37%	18%	–	45%	42%	% inhibition Calu-3 Delta MOI 0.01 ([4]; listed as AS): effective
CC[C@H]1OC(=O)[C@H](C)[C@@H](O[C@H]2C[C@@](C)(OC)[C@@H](O)[C@H](C)O2)[C@H](C)[C@@H](O[C@@H]2O[C@H](C)C[C@H](N(C)C)[C@H]2O)[C@](C)(O)C[C@@H](C)CN(C)[C@H](C)[C@@H](O)[C@]1(C)O [Azithromycin dehydrate (AZH), Azithromycin dehydrate]	≥ 20%	25%	8%	19%	0%	2%	–
CN(C)C(=O)COC(=O)Cc1ccc(OC(=O)c2ccc(NC(=N)N)cc2)cc1 [Camostat mesylate (CAM), Camostat mesylate]	–	0%	7%	16%	2%	4%	–
CCN(CCO)CCCC(C)Nc1ccnc2cc(Cl)ccc12 (centres unmarked) [Hydroxychloroquine Minsa (HCQ-m), Hydroxychloroquine]	–	43%	18%	–	0%	–	–
CCN(CCO)CCCC(C)Nc1ccnc2cc(Cl)ccc12 (centres unmarked) [Hydroxychloroquine sulfate (HCQ), Hydroxychloroquine sulfate]	–	43%	10%	16%	29%	9%	% inhibition Calu-3 Delta MOI 0.01 ([4]; listed as HCQ): effective; less potent against the Delta compared to the A2.5 variant [1]: 40%; times more potent against A2.5 than Delta ([3]; Vero-E6): 1.8 times; pIC50 (SARS-CoV-2 A2.5 variant; [5]): 4.90; IC50 (SARS-CoV-2 A2.5 variant; [6]): 5.8 µg/mL; pIC50 (SARS-CoV-2 A2.5 variant; Severe acute respiratory syndrome coronavirus 2, Vero C1008, read-out: IC50 (Figure 4 curve)): 4.87; IC90 (SARS-CoV-2 A2.5 variant; [7]): 113 µM; IC90 (SARS-CoV-2 A2.5 variant; [8]): 38.1 µg/mL
O=C(Nc1cccc(C2=NCCN2)c1)Nc1cccc(C2=NCCN2)c1 [Imidocarb (IMI), Imidocarb]	–	0%	11%	14%	–	16%	–
CC[C@H](C)[C@H]1O[C@]2(CC[C@@H]1C)C[C@@H]1C[C@@H](C/C=C(\C)[C@@H](O[C@H]3C[C@H](OC)[C@@H](O[C@H]4C[C@H](OC)[C@@H](O)[C@H](C)O4)[C@H](C)O3)[C@@H](C)/C=C/C=C3\CO[C@@H]4[C@H](O)C(C)=C[C@@H](C(=O)O1)[C@]34O)O2 [Ivermectin (IVM), Ivermectin]	–	19%	11%	15%	5%	17%	IC50% (SARS-CoV-2 A2.5 variant): 63.6 µg/mL (≈ 72.7 µM); pIC50 (SARS-CoV-2 A2.5 variant; read-out: IC50%): 4.14
CCCCN(CCCC)CC(O)c1cc(Cl)cc2c1-c1ccc(Cl)cc1/C2=C/c1ccc(Cl)cc1 (centres unmarked) [Lumefantrine (LUM), Lumefantrine]	–	0%	14%	19%	–	–	–
OC(c1cc(C(F)(F)F)nc2c(C(F)(F)F)cccc12)C1CCCCN1 (centres unmarked) [Mefloquine (MQ), Mefloquine]	≥ 20%	45%	6%	8%	16%	0%	–
CN(C)c1ccc2nc3ccc(=[N+](C)C)cc-3sc2c1 [Methylene Blue Injection (MBi), Methylene Blue]	–	16%	10%	18%	2%	–	–
COc1c(C)c2c(c(O)c1C/C=C(\C)CCC(=O)O)C(=O)OC2 [Mycophenolic acid (MYC), Mycophenolic acid]	≥ 20%	40%	7%	11%	0%	5%	–
CN1CCN(CCCN2c3ccccc3Sc3ccc(Cl)cc32)CC1 [Prochlorperazine (PCPZ), Prochlorperazine]	–	6%	6%	16%	0%	0%	–
COc1ccc2nc3cc(Cl)ccc3c(Nc3cc(CN4CCCC4)c(O)c(CN4CCCC4)c3)c2n1 [Pyranoridine (PNO), Pyranoridine]	≥ 20%	43%	6%	1%	0%	-1%	–
CCc1nc(N)nc(N)c1-c1ccc(Cl)cc1 [Pyrimethamina (PYR), Pyrimethamina]	≥ 20%	34%	9%	0%	0%	3%	–
C=C[C@H]1C[N@@]2CC[C@H]1C[C@H]2[C@H](O)c1ccnc2ccc(OC)cc12 [Quinine Sulfate (QN), Quinine Sulfate]	–	0%	9%	0%	18%	–	–
NC(=O)c1ncn([C@@H]2O[C@H](CO)[C@@H](O)[C@H]2O)n1 [Ribavirin (RIB), Ribavirin]	≥ 20%	44%	8%	11%	9%	-6%	–
COc1cc(C)c2c(Oc3cccc(C(F)(F)F)c3)c(OC)cc(NC(C)CCCN)c2n1 (centres unmarked) [TQ, tafenoquine]	–	–	–	–	–	–	viral inhibition, secondary screening, Delta [1]: at least 20%
Ferroquine [Ferroquine (FQ)]	–	23%	7%	–	12%	4%	–
Ivermectin [Ivermectin Farmacia (IVM-f)]	≥ 20%	44%	5%	16%	–	5%	–
Ivermectin [Ivermectin Liquida (IVM-li)]	–	0%	15%	–	52%	45%	% inhibition Calu-3 Delta MOI 0.01 ([4]; listed as IVM-l): ≥ 20%; % inhibition Vero E6 A2.5 MOI 0.01 ([3]; listed as IVM-li): ≥ 20%
